Laboratory results published in article PMC3085948 (Journal of medicinal chemistry, 2011).

Columns and labels:
[1] = system: FAAH knockout mice; conditions: cited from earlier work
[2] = in vivo; cited from earlier work
[3] = system: cannabinoid (CB1 or CB2) or vanilloid receptors; conditions: background statement; cited from earlier work
[4] = system: common P450 metabolism enzymes; conditions: background statement; cited from earlier work
[5] = system: human ether-a-go-go related gene (hERG); conditions: background statement; cited from earlier work
[6] = system: human FAAH; experiment: FAAH inhibition, human FAAH from transfected COS-7 cells; format: biochemical; conditions: active (S)-enantiomers; hFAAH vs rFAAH
[7] = Rat or human liver microsome stability; conditions: rat, human, microsomes
[8] = system: endogenous lipid amide levels (anandamide, PEA, OEA, 2-AG, arachidonic acid); conditions: for effect on endogenous levels of 2-AG / effect on endogenous levels of arachidonic acid / effect on endogenous levels of key lipid amides (anandamide, PEA) / site of effect on lipid levels (brain vs liver): 30 mg/kg i.p., single mouse; for brain lipid amide levels, oral versus intraperitoneal dosing: p.o. 50 mg/kg vs i.p. 30 mg/kg, 3 mice per group
[9] = target: T1, rat FAAH (Rattus norvegicus, UniProt P97612); format: biochemical
T1 sequence (P97612 30-579 limits assumed): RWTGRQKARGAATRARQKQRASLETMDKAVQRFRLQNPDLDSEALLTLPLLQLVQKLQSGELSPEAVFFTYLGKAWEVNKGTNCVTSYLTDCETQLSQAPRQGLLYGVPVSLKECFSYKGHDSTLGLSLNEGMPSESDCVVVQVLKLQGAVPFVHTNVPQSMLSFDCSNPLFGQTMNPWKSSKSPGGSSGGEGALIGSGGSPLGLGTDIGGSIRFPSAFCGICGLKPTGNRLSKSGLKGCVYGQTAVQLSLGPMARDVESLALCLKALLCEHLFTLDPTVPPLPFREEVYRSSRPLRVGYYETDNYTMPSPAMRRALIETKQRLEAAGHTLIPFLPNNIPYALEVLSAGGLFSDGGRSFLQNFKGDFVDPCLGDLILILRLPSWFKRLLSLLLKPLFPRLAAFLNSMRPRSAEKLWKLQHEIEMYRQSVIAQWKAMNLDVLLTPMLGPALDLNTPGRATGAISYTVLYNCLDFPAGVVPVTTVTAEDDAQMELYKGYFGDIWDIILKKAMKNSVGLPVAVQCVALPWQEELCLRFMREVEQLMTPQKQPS

[10] = system: chronic constriction injury (CCI) neuropathic pain; experiment: CCI acetone-induced cold allodynia; format: in vivo, mice; conditions: 50 mg/kg p.o.
[11] = format: in vivo; conditions: 50 mg/kg oral, data not shown
[12] = system: chronic constriction injury (CCI) neuropathic pain; experiment: CCI mechanical allodynia; format: in vivo, mice; conditions: 50 mg/kg p.o.
[13] = system: acute thermal pain; format: in vivo, mice; conditions: i.v. administration

SMILES	activity against human versus rat FAAH [6]	half-life [7] [min]	effect on endogenous levels of 2-AG ([8]; 1 h)	effect on endogenous levels of arachidonic acid ([8]; 1 h)	effect on endogenous levels of key lipid amides (anandamide, PEA) ([8]; 1 h)	site of effect on lipid levels (brain vs liver) ([8]; 1 h)	brain lipid amide levels, oral versus intraperitoneal dosing [8]	mode of inhibition (Lineweaver–Burk analysis) [9]	duration of effect [13] [min]	also measured
O=C(CCCCCCc1ccccc1)c1ncc(-c2ccccn2)o1 [Compound 2]	no significant distinction	2 to 4	–	–	–	–	–	–	–	antinociception in FAAH knockout mice [1]: does not produce antinociception; time to establish ketone/alcohol steady state equilibrium [2]: ≤ 15 min; binding to cannabinoid (CB1 or CB2) or vanilloid receptors [3]: does not bind; inhibition of common P450 metabolism enzymes [4]: does not significantly inhibit; inhibition of hERG [5]: does not significantly inhibit
O=C(c1ncc(-c2ccccn2)o1)C1CCc2cc(Oc3ccccc3)ccc2C1 (stereo not shown) [Compound 12, (6-Phenoxy-1,2,3,4-tetrahydronaphthalen-2-yl)(5-(pyridin-2-yl)oxazol-2-yl)methanone]	no significant distinction	–	without impacting	minimal impact	increased	observed both in the brain (CNS) and liver (peripheral)	matched and even improved on the results observed with i.p. administration	reversible, competitive inhibitors	–	time of peak brain anandamide levels ([8]; 50 mg/kg p.o.): 1.5 to 3 h; duration of elevation of brain N-acylethanolamines ([8]; 50 mg/kg p.o., time course up to 9 h): ≥ 9 h; increase in brain levels of PEA and OEA ([8]; p.o. 10, 25 and 50 mg/kg, 1 h): 5.5–7.8 fold; increase in brain anandamide levels ([8]; p.o. 25–50 mg/kg, 1 h): 12–13 fold; cold allodynia, control paws [10]: no effect; cold allodynia, paws ipsilateral to CCI surgery [10]: significantly attenuated; duration of effect on cold allodynia [10]: > 9 h; cannabimimetic side effects [11]: did not produce catalepsy, hypothermia, or hypomotility; duration of effect on mechanical allodynia [12]: > 6 h; mechanical allodynia, control paws [12]: no effect; mechanical allodynia, paws ipsilateral to CCI surgery [12]: significantly attenuated
O=C(O)c1cccc(-c2cnc(C(=O)C3CCc4cc(Oc5ccccc5)ccc4C3)o2)n1 (stereo not shown) [Compound 14, 6-(2-(6-Phenoxy-1,2,3,4-tetrahydronaphthalene-2-carbonyl)oxazol-5-yl)picolinic Acid]	4 fold	–	–	–	–	principally seen peripherally (liver)	matched and even improved on the results observed with i.p. administration	reversible, competitive inhibitors	150	time of maximal effect [13]: 30 to 60 min; maximal antinociceptive effect (efficacy) ([13]; tail flick 52 °C): same maximal effect (efficacy) observed with morphine
O=C(c1ncc(-c2ccccn2)o1)C1CCc2cc(OCc3ccccc3)ccc2C1 (stereo not shown) [Compound 18]	–	12 to 15	–	–	–	–	–	–	–	–
O=C(c1ncc(-c2ccccn2)o1)C1Cc2ccc(Oc3ccccc3)cc2C1 (stereo not shown) [Compound 27]	–	–	without impacting	minimal impact	increased	–	–	–	–	–
CN1CC[C@]23c4c5ccc(O)c4O[C@H]2[C@@H](O)C=C[C@H]3[C@H]1C5 [morphine, reference compound]	–	–	–	–	–	–	–	–	150	–
